Assay results from PMC6273125, “Antioxidant Activity of 3-[N-(Acylhydrazono)ethyl]-4-hydroxy-coumarins” (Molecules, 2016).
“Also recorded” adds a separate entry of the source.

Columns and labels:
[1] = Reducing activity of the DPPH stable free radical (RA%); conditions: DPPH 0.05 mM in ethanol; for RA%, 50 μM, 20 min / RA%, 50 μM, 60 min: compound 50 μM; for RA%, 100 µM, 20 min: compound 100 µM; for RA%, 100 μM, 60 min: compound 100 μM
Text: It is well known that the interaction of the synthesized 3-acetyl-4-hydroxycoumarin N-acylhydrazones 2 with the stable free radical DPPH indicates their radical scavenging ability in an iron-free system. […] Considering the antioxidant activity of 3-acetyl-4-hydroxy coumarin (1) it seems to be higher than the hydrazone derivatives 2a–l in both concentrations and in relation with the time and it is correlated with the presence of 3-acetyl and 4-hydroxy groups in the lactone ring and the possibility of tautomers (A–D) formation as shown in Scheme 2. It has been reported that 3-acetyl-4-hydroxycoumarin mainly exists in endocyclic enol form (B) in polar solvents (methanol, ethanol) and it is well known that enols show antioxidant activity e.g., it has been reported that enolic and phenolic hydroxyl groups is beneficial for curcumin to protect erythrocytes against hemin-induced hemolysis and to protect DNA against AAPH-induced oxidation. The lower results of hydrazones 2a–l, are correlated with their stereochemistry which influence their interaction with DPPH.
To an ethanolic solution of DPPH (0.05 mM) in absolute ethanol the new coumarin derivatives dissolved in DMSO were added (final concentration 50 and 100 µM). The mixture was shaken vigorously and allowed to stand for 20 min or 60 min; absorbance at 517 nm was determined spectrophotometrically against the blank and the percentage of reducing activity (RA) was calculated by the formula: RA% = [(A0 − A1)/A0] × 100 where A0 is the absorbance of blank and A1 is the absorbance of the reaction mixture.

[2] = Inhibition of linoleic acid lipid peroxidation induced by AAPH; conditions: pH 7.4, 37 °C
Text: AAPH induced linoleic acid oxidation is based on the inhibition of lipid oxidation and provides a measure of how efficiently antioxidants protect against lipid oxidation in vitro. Oxidation of exogenous linoleic acid by a thermal free radical producer (AAPH) is followed by UV spectrophotometry in a highly-diluted sample [36, 42].
Production of conjugated diene hydroperoxide by oxidation of linoleic acid in an aqueous dispersion is monitored at 234 nm. 2,2′-Azobis(2-amidinopropane) dihydrochloride (AAPH) is used as a free radical initiator. Ten microliters of the 16 mM linoleic acid sodium salt solution was added to the UV cuvette containing 930 µL of […] phosphate buffer, pH 7.4 prethermostated at 37 °C. The oxidation reaction was initiated at 37 °C under air by the addition of 50 μL of 40 mM AAPH solution. Oxidation was carried out in the presence of aliquots (10 μL) of the tested coumarins. In the assay without antioxidant, lipid peroxidation was measured in the presence of the same level of DMSO. The rate of oxidation at 37 °C was monitored by recording the increase in absorption at 234 nm caused by conjugated diene hydroperoxides.

[3] = target: T1, soybean lipoxygenase (LOX) (Glycine max, UniProt P08170); experiment: In vitro inhibition of soybean lipoxygenase, UV-absorbance-based enzyme assay; format: biochemical; conditions: for IC50 / LOX IC50: soybean lipoxygenase, sodium linoleate, Tris buffer pH 9
T1 construct: purchased Sigma Chemical, Co. (St. Louis, MO, USA)
T1 sequence (P08170 1-839): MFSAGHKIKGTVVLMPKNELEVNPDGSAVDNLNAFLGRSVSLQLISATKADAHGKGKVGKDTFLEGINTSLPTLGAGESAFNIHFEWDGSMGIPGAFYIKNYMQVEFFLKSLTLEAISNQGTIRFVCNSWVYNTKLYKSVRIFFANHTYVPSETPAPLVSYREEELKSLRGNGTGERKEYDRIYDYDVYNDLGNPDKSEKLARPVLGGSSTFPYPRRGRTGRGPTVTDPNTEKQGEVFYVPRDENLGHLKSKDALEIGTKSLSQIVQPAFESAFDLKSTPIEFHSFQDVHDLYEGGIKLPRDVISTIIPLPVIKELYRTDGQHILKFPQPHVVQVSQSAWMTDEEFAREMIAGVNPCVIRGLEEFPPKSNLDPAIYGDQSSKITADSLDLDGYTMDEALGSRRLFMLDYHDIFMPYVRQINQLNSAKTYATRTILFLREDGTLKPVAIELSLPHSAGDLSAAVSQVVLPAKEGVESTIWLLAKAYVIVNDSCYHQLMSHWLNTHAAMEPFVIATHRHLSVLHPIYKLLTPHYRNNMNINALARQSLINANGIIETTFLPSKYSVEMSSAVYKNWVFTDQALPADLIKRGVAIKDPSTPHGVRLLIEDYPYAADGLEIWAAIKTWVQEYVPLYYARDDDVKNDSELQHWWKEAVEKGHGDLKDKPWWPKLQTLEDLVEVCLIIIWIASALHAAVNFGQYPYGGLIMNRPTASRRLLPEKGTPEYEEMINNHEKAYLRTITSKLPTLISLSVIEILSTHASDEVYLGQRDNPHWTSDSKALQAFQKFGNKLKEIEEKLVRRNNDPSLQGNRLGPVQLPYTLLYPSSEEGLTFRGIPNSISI
Method: The tested compounds dissolved in DMSO were incubated at room temperature with sodium linoleate (100 µL) and 200 µL of enzyme solution (1/9 × 10^−4 w/v in saline) in Tris buffer pH 9. The conversion of sodium linoleate to 13-hydroperoxylinoleic acid at 234 nm was recorded and compared with the appropriate standard inhibitor.

| SMILES | RA%, 50 μM, 20 min [1] [%] | RA%, 50 μM, 60 min [1] [%] | RA%, 100 µM, 20 min [1] [%] | RA%, 100 μM, 60 min [1] [%] | LP 60 s, 100 μM (% inhibition of LP induced by AAPH) [2] [%] | IC50 [3] [µM] | melting point [°C] | LOX IC50 [3] | inhibition at 100 µM [3] [%] | LOX % inhibition ([3]; 100 µM, IC50 not determined) |
| --- | --- | --- | --- | --- | --- | --- | --- | --- | --- | --- |
| CC(=O)NN=C(C)c1c(O)c2ccccc2oc1=O [2a, 3-[N-(Acetylhydrazono)ethyl]-4-hydroxycoumarin] | 5 ± 0.2 | 7 ± 0.3 | 23 ± 3.0 | 24 ± 2.0 | 100 ± 9.8 | 62.5 ± 2.3 | 248 to 249 | – | – | – |
| CC(=NNC(=O)Cc1ccccc1)c1c(O)c2ccccc2oc1=O [2b, 3-[N-(Phenylacetylhydrazono)ethyl]-4-hydroxycoumarin] | 4 ± 0.2 | 7 ± 0.1 | 25 ± 2.0 | 29 ± 1.1 | 100 ± 5.5 | 40 ± 0.5 | 216 to 217 | – | – | – |
| CC(=NNC(=O)c1ccccc1)c1c(O)c2ccccc2oc1=O [2c, 3-[N-(Benzoylhydrazono)ethyl]-4-hydroxycoumarin] | 5 ± 0.1 | 7 ± 0.4 | 25 ± 1.2 | 30 ± 2.8 | 98 ± 5.4 | 58 ± 2.7 | – | – | – | – |
| CC(=NNC(=O)c1ccc(C)cc1)c1c(O)c2ccccc2oc1=O [2d, 3-{N-[(4′-Methylbenzoyl)hydrazono]ethyl}-4-hydroxycoumarin] | 7 ± 0.3 | 10 ± 0.2 | 27 ± 2.2 | 27 ± 1.4 | 100 ± 3.2 | – | 251 to 252 | do not seem to present any activity; also recorded: No ^c | – | – |
| CC(=NNC(=O)c1ccc(Cl)cc1)c1c(O)c2ccccc2oc1=O [2e, 3-{N-[(4′-Chlorobenzoyl)hydrazono]ethyl}-4-hydroxycoumarin] | 7 ± 0.2 | 10 ± 0.5 | 27 ± 0.9 | 29 ± 0.8 | 94 ± 4.8 | 55 ± 2.1 | 248 to 248.5 | – | – | – |
| CC(=NNC(=O)c1ccc(O)cc1)c1c(O)c2ccccc2oc1=O [2f, 3-{N-[(4′-Hydroxybenzoyl)hydrazono]ethyl}-4-hydroxycoumarin] | 10 ± 0.5 | 14 ± 1.2 | 24 ± 2.2 | 26 ± 1.2 | 98 ± 2.9 | 70 ± 4.3 | 287 to 288 | – | – | – |
| CC(=NNC(=O)c1ccc(N)cc1)c1c(O)c2ccccc2oc1=O [2g, 3-{N-[(4′-Aminobenzoyl)hydrazono]ethyl}-4-hydroxycoumarin] | 9 ± 0.3 | 16 ± 0.6 | 27 ± 0.8 | 31 ± 1.4 | 95 ± 7.2 | 46.5 ± 2.3 | 256 to 257 | – | – | – |
| CC(=NNC(=O)c1ccncc1)c1c(O)c2ccccc2oc1=O [2h, 3-[N-(Isonicotinoylhydrazono)ethyl]-4-hydroxycoumarin] | 5 ± 0.1 | 8 ± 0.2 | 27 ± 1.5 | 31 ± 1.6 | 99 ± 3.7 | – | 274 | do not seem to present any activity; also recorded: No ^c | – | – |
| CC(=NNC(=O)c1ccccc1O)c1c(O)c2ccccc2oc1=O [2i, 3-{N-[(2′-Hydroxybenzoyl)hydrazono]ethyl}-4-hydroxycoumarin] | 8 ± 0.5 | 10 ± 0.1 | 27 ± 0.2 | 29 ± 1.7 | 100 ± 8.2 | 49.5 ± 1.2 | 271 to 272 | – | – | – |
| CC(=NNC(=O)c1ccco1)c1c(O)c2ccccc2oc1=O [2j, 3-{N-[(2′-Furoyl)hydrazono]ethyl}-4-hydroxycoumarin] | 4 ± 0.2 | 8 ± 0.3 | 25 ± 1.8 | 27 ± 0.8 | 95 ± 4.1 | 90 ± 5.1 | 254.5 to 255 | – | – | – |
| CC(=NNC(=O)c1cccs1)c1c(O)c2ccccc2oc1=O [2k, 3-{N-[(2′-Thienylcarbonyl)hydrazono]ethyl}-4-hydroxycoumarin] | 7 ± 0.1 | 9 ± 0.2 | 25 ± 2.1 | 30 ± 2.2 | 98 ± 3.9 | 43.5 ± 3.2 | 228 to 228.5 | – | – | – |
| CC(Cc1ccc(O)c(O)c1)C(C)Cc1ccc(O)c(O)c1 (stereo not drawn) [NDGA, nordihydroguairetic acid, reference compound] | 84 ± 2.0 | 83 ± 3.3 | 81 ± 5.2 | 83 ± 4.7 | – | – | – | – | – | – |
| Cc1c(C)c2c(c(C)c1O)CCC(C)(C(=O)O)O2 (stereo not drawn) [TROLOX, trolox, reference compound] | – | – | – | – | 63 ± 0.2 | – | – | – | – | – |
| CC(=O)c1c(O)c2ccccc2oc1=O [compound 1, 3-Acetyl-4-hydroxycoumarin] | 29 ± 0.5 | 31± 0.3 | 36± 1.3 | 36 ± 0.8 | – | – | – | – | 44 | low inhibitory activity |
